Patent US9956319B2, “Compositions useful as antibiofilm or antimicrobial agents and methods using same” (BAYLOR COLLEGE OF MEDICINE, priority 2012, dated 2018)

Experiments:
Klebsiella pneumoniae = test: Bacterial colony counts extracted from impregnated central venous catheters after exposure to bacteria; type: cell-based; conditions: catheter impregnated with 25 mg/ml, 10^5 cfu/ml suspension in TSB, 37° C., 24 hours
Protocol: To evaluate the anticolonization/antimicrobial activity of central venous catheters treated with dihydrolipoic acid, segments of 7 French triple lumen polyurethane central venous catheters were impregnated with dihydrolipoic acid using the same patented method described in Example 1 (U.S. Pat. No. 6,589,591) with 25 mg/ml (final solution volume) of the agent. After the impregnation process and drying, Catheter segments were then placed in the impregnating solution at 55° C. with agitation for 1 hour in the dark. Catheter segments were then removed from the solution and dried under a fume hood overnight in the dark. Catheter segments were rinsed with deionized water the next day and let dry for another 18 hours in the dark. After the impregnation process and drying, one-centimeter segments of impregnated catheters were individually placed in 1 ml of 10^5 cfu/ml suspensions of MRSE, MRSA, or K. pneumoniae in trypticase soy broth (TSB) at 37° C. for 24 hours. One-centimeter segments of non-impregnated catheters were also incubated individually in each bacterial suspension at 37° C. for 24 hours as controls. […]
(§1) Aliquots of each suspension and subsequent dilutions were cultured quantitatively.

Klebsielle pneuminiae II = test: Bacterial colony counts extracted from impregnated central venous catheters after incubation in bacterial suspension; type: cell-based, Klebsiella pneumoniae; conditions: catheter impregnated with 50 mg/ml, 10^5 cfu/ml suspension in TSB, 37° C., 24 hours
Protocol: (§2) In this example, segments of 7 French triple lumen polyurethane central venous catheters were impregnated with α-lipoic acid using the method described elsewhere (U.S. Pat. No. 6,589,591) and were subjected to zones of inhibition. Briefly, α-lipoic acid was dissolved in 88% formic acid (at a final solution concentration of 50 mg/ml). 85% ortho-Phosphoric acid and glycerol were then added to the solution at 79:8:13 (v/v/v) (formic acid:ortho-phosphoric acid:glycerol). After mixing the solution, 300 mg/ml of potassium chloride was added to the final solution and mixed.
Catheter segments were then placed in the impregnating solution at 55° C. with agitation for 1 hour in the dark. Catheter segments were then removed from the solution and dried under a fume hood overnight in the dark. Catheter segments were rinsed with deionized water the next day and let dry for another 18 hours in the dark. […]
as §1

Proteus mirabilis = test: as above; type: cell-based; conditions: catheter impregnated with 50 mg/ml, 10^5 cfu/ml suspension in TSB, 37° C., 24 hours
Protocol: as §2
(§3) Catheter segments were then placed in the impregnating solution at 55° C. with agitation for 1 hour in the dark. Catheter segments were then removed from the solution and dried under a fume hood overnight in the dark. Catheter segments were rinsed with deionized water the next day and let dry for another 18 hours in the dark. After the impregnation process and drying, one-centimeter segments of impregnated catheters were individually placed in 1 ml of 10^5 cfu/ml suspensions of methicillin-sensitive Staphylococcus epidermidis (MSSE), methicillin-resistant Staphylococcus epidermidis (MRSE), methicillin-resistant Staphylococcus aureus (MRSA), Klebsiella pneumoniae, Escherichia coli, or Proteus mirabilis in trypticase soy broth (TSB) at 37° C. for 24 hours. One-centimeter segments of non-impregnated catheters were also incubated individually in each bacterial suspension at 37° C. for 24 hours as controls. Catheter segments were removed from each bacterial suspension after this period, shaken to remove excess broth containing free-floating bacteria from their surfaces, placed in 1 ml of normal saline, sonicated for 5 minutes, and vortexed for 30 seconds.
as §1

Escherichia coli = test: as above; type: cell-based; conditions: catheter impregnated with 50 mg/ml, 10^5 cfu/ml suspension in TSB, 37° C., 24 hours
Protocol: as §2, §3, §1

[1] = test system: methicillin-sensitive Staphylococcus epidermidis (MSSE); test: as above; type: cell-based; conditions: catheter impregnated with 50 mg/ml, 10^5 cfu/ml suspension in TSB, 37° C., 24 hours
Protocol: as §2, §3, §1

Klebsiella pneumoniae I = test: as above; type: cell-based; conditions: catheter impregnated with 50 mg/ml, 10^5 cfu/ml suspension in TSB, 37° C., 24 hours
Protocol: as §2, §3, §1

SMILES | Mean bacterial colony counts extracted from catheter (Klebsiella pneumoniae) | Bacterial colony counts extracted from central venous catheters (Klebsielle pneuminiae II) | Bacterial colony counts extracted from central venous catheters (Proteus mirabilis) | Bacterial colony counts extracted from central venous catheters (Escherichia coli) | Bacterial colony counts extracted from central venous catheters [1] | Bacterial colony counts extracted from central venous catheters (Klebsiella pneumoniae I)
O=C(O)CCCCC(S)CCS (stereo not drawn) [Dihydrolipoic acid, 6,8-dimercaptooctanoic acid] | 280000 | – | – | – | – | –
O=C(O)CCCCC1CCSS1 (stereo not drawn) [Lipoic acid, 1,2-dithiolane-3-pentanoic acid] | – | 9.0 × 10^3 | 0 | 1.4 × 10^4 | 10 | 1.1 × 10^6
